Test results as given in patent US20250066286A1, “COMPOSITIONS OF (Z)-ENDOXIFEN AND METHODS OF ENRICHMENT THEREOF” (Atossa Therapeutics, Inc., priority 2022, published 2025).

Experiments:
[1] = Stability of (Z)-Endoxifen in acetone (HPLC peak table over time); format: physicochemical; settings: for E-form, RT 14.58, RRT 0.96 / HPLC peak RT 13.84, RRT 0.91 / HPLC peak RT 20.32, RRT 1.34 / HPLC peak RT 20.51, RRT 1.35 / HPLC peak RT 21.68, RRT 1.43 / HPLC peak RT 22.88, RRT 1.51 / HPLC peak RT 27.15, RRT 1.79 / HPLC peak RT 27.21, RRT 1.80 / HPLC peak RT 27.45, RRT 1.81 / HPLC peak RT 27.88, RRT 1.84 / HPLC peak RT 4.37, RRT 0.28 / Z-form, RT 15.13, RRT 1.00: acetone at reflux (56° C.); for HPLC peak RT 4.37, RRT 0.28 / Z-form, RT 15.13, RRT 1.00 / Z-form, RT 16.25, RRT 1.00: in % (unit assumed); for E-form, RT 15.40, RRT 0.95 / HPLC peak RT 3.14, RRT 0.19 / HPLC peak RT 4.25, RRT 0.26 / HPLC peak RT 14.68, RRT 0.90 / HPLC peak RT 17.69, RRT 1.09 / HPLC peak RT 20.47, RRT 1.26 / HPLC peak RT 20.80, RRT 1.28 / HPLC peak RT 21.56, RRT 1.33 / HPLC peak RT 21.83, RRT 1.34 / HPLC peak RT 22.68, RRT 1.39 / HPLC peak RT 22.76, RRT 1.40 / Z-form, RT 16.25, RRT 1.00: acetone, 40° C.
[2] = Slurries of (Z)-endoxifen in solvent mixtures (XRPD); format: physicochemical; settings: for Output Crystallinity [high/low/SC/oriented]: 50° C., 1 d
Procedure: Slurry experiments were performed with solvents with 50° C. (Z)-endoxifen was suspended in 500 μl of the solvent mixture to achieve the concentrations of 40 mg/ml or 100 mg/ml. The resultant solutions were stored at 50° C. for one day. For solvent mixtures which included acetone, the slurry was instead stored at 40° C. The suspensions were then recovered and filtered with a nylon filter (0.22 μm) during centrifugation at 4000 rpm for 3 minutes, and the collected solid (Z)-endoxifen was analyzed by XRPD as shown in FIG. 85-FIG. 91 and FIG. 1-FIG. 5.

Structure (SMILES): CC/C(=C(\c1ccc(O)cc1)c1ccc(OCCNC)cc1)c1ccccc1 [(Z)-endoxifen, (Z)-4-(1-(4-(2-(methylamino)ethoxy)phenyl)-2-phenylbut-1-enyl)phenol]
- E-form, RT 14.58, RRT 0.96 ([1]; 3 hr): 0.54%
- HPLC peak RT 13.84, RRT 0.91 ([1]; 3 hr): 0.05%
- HPLC peak RT 20.32, RRT 1.34 ([1]; 3 hr): 0.37%
- HPLC peak RT 20.51, RRT 1.35 ([1]; 3 hr): 0.06%
- HPLC peak RT 21.68, RRT 1.43 ([1]; 3 hr): 0.16%
- HPLC peak RT 22.88, RRT 1.51 ([1]; 3 hr): 0.13%
- HPLC peak RT 27.15, RRT 1.79 ([1]; 3 hr): 0.03%
- HPLC peak RT 27.21, RRT 1.80 ([1]; 3 hr): 0.05%
- HPLC peak RT 27.45, RRT 1.81 ([1]; 3 hr): 0.24%
- HPLC peak RT 27.88, RRT 1.84 ([1]; 3 hr): 0.04%
- HPLC peak RT 4.37, RRT 0.28 ([1]; 3 hr): 0.96
- Z-form, RT 15.13, RRT 1.00 ([1]; 3 hr): 96.67
- E-form, RT 14.58, RRT 0.96 ([1]; 19 hr): 1.01%
- HPLC peak RT 13.84, RRT 0.91 ([1]; 19 hr): 0.04%
- HPLC peak RT 20.32, RRT 1.34 ([1]; 19 hr): 0.12%
- HPLC peak RT 20.51, RRT 1.35 ([1]; 19 hr): 0.04%
- HPLC peak RT 21.68, RRT 1.43 ([1]; 19 hr): 0.14%
- HPLC peak RT 22.88, RRT 1.51 ([1]; 19 hr): 0.09%
- HPLC peak RT 27.15, RRT 1.79 ([1]; 19 hr): 0.02%
- HPLC peak RT 27.21, RRT 1.80 ([1]; 19 hr): 0.04%
- HPLC peak RT 27.45, RRT 1.81 ([1]; 19 hr): 0.22%
- HPLC peak RT 27.88, RRT 1.84 ([1]; 19 hr): 0.04%
- HPLC peak RT 4.37, RRT 0.28 ([1]; 19 hr): 5.74
- Z-form, RT 15.13, RRT 1.00 ([1]; 19 hr): 91.92
- E-form, RT 14.58, RRT 0.96 ([1]; 27 hr): 1.53%
- HPLC peak RT 13.84, RRT 0.91 ([1]; 27 hr): 0.04%
- HPLC peak RT 20.32, RRT 1.34 ([1]; 27 hr): 0.09%
- HPLC peak RT 20.51, RRT 1.35 ([1]; 27 hr): 0.1%
- HPLC peak RT 21.68, RRT 1.43 ([1]; 27 hr): 0.15%
- HPLC peak RT 22.88, RRT 1.51 ([1]; 27 hr): 0.06%
- HPLC peak RT 27.15, RRT 1.79 ([1]; 27 hr): 0.03%
- HPLC peak RT 27.21, RRT 1.80 ([1]; 27 hr): 0.04%
- HPLC peak RT 27.45, RRT 1.81 ([1]; 27 hr): 0.22%
- HPLC peak RT 27.88, RRT 1.84 ([1]; 27 hr): 0.04%
- HPLC peak RT 4.37, RRT 0.28 ([1]; 27 hr): 7.93
- Z-form, RT 15.13, RRT 1.00 ([1]; 27 hr): 89.05
- E-form, RT 14.58, RRT 0.96 ([1]; 43 hr): 5.33%
- HPLC peak RT 13.84, RRT 0.91 ([1]; 43 hr): 0.04%
- HPLC peak RT 20.32, RRT 1.34 ([1]; 43 hr): 0.13%
- HPLC peak RT 20.51, RRT 1.35 ([1]; 43 hr): 0.05%
- HPLC peak RT 21.68, RRT 1.43 ([1]; 43 hr): 0.13%
- HPLC peak RT 22.88, RRT 1.51 ([1]; 43 hr): 0.05%
- HPLC peak RT 27.15, RRT 1.79 ([1]; 43 hr): 0.04%
- HPLC peak RT 27.21, RRT 1.80 ([1]; 43 hr): 0.05%
- HPLC peak RT 27.45, RRT 1.81 ([1]; 43 hr): 0.15%
- HPLC peak RT 27.88, RRT 1.84 ([1]; 43 hr): 0.04%
- HPLC peak RT 4.37, RRT 0.28 ([1]; 43 hr): 12.64
- Z-form, RT 15.13, RRT 1.00 ([1]; 43 hr): 80.36
- E-form, RT 14.58, RRT 0.96 ([1]; T0): 0.3%
- HPLC peak RT 13.84, RRT 0.91 ([1]; T0): 0.04%
- HPLC peak RT 20.32, RRT 1.34 ([1]; T0): 0.04%
- HPLC peak RT 20.51, RRT 1.35 ([1]; T0): 0.12%
- HPLC peak RT 21.68, RRT 1.43 ([1]; T0): 0.15%
- HPLC peak RT 22.88, RRT 1.51 ([1]; T0): 0.03%
- HPLC peak RT 27.15, RRT 1.79 ([1]; T0): 0.03%
- HPLC peak RT 27.21, RRT 1.80 ([1]; T0): 0.05%
- HPLC peak RT 27.45, RRT 1.81 ([1]; T0): 0.17%
- HPLC peak RT 27.88, RRT 1.84 ([1]; T0): 0.04%
- HPLC peak RT 4.37, RRT 0.28 ([1]; T0): 0.05
- Z-form, RT 15.13, RRT 1.00 ([1]; T0): 98.67
- E-form, RT 15.40, RRT 0.95 ([1]; 4 hr): 0.78%
- HPLC peak RT 3.14, RRT 0.19 ([1]; 4 hr): 0.15%
- HPLC peak RT 4.25, RRT 0.26 ([1]; 4 hr): 0.57
- HPLC peak RT 14.68, RRT 0.90 ([1]; 4 hr): 0.04%
- HPLC peak RT 17.69, RRT 1.09 ([1]; 4 hr): 0.08%
- HPLC peak RT 20.47, RRT 1.26 ([1]; 4 hr): 0.04
- HPLC peak RT 20.80, RRT 1.28 ([1]; 4 hr): 0.15%
- HPLC peak RT 21.56, RRT 1.33 ([1]; 4 hr): 0.08%
- HPLC peak RT 21.83, RRT 1.34 ([1]; 4 hr): 0.1%
- HPLC peak RT 22.68, RRT 1.39 ([1]; 4 hr): 0.1%
- HPLC peak RT 22.76, RRT 1.40 ([1]; 4 hr): 0.08%
- Z-form, RT 16.25, RRT 1.00 ([1]; 4 hr): 97.28
- E-form, RT 15.40, RRT 0.95 ([1]; 20 hr): 1.03%
- HPLC peak RT 3.14, RRT 0.19 ([1]; 20 hr): 0.11%
- HPLC peak RT 4.25, RRT 0.26 ([1]; 20 hr): 2.00
- HPLC peak RT 14.68, RRT 0.90 ([1]; 20 hr): 0.04%
- HPLC peak RT 17.69, RRT 1.09 ([1]; 20 hr): 0.08%
- HPLC peak RT 20.47, RRT 1.26 ([1]; 20 hr): 0.05
- HPLC peak RT 20.80, RRT 1.28 ([1]; 20 hr): 0.21%
- HPLC peak RT 21.56, RRT 1.33 ([1]; 20 hr): 0.08%
- HPLC peak RT 21.83, RRT 1.34 ([1]; 20 hr): 0.08%
- HPLC peak RT 22.68, RRT 1.39 ([1]; 20 hr): 0.09%
- HPLC peak RT 22.76, RRT 1.40 ([1]; 20 hr): 0.01%
- Z-form, RT 16.25, RRT 1.00 ([1]; 20 hr): 95.35
- E-form, RT 15.40, RRT 0.95 ([1]; 24 hr): 1.14%
- HPLC peak RT 3.14, RRT 0.19 ([1]; 24 hr): 0.13%
- HPLC peak RT 4.25, RRT 0.26 ([1]; 24 hr): 2.81
- HPLC peak RT 14.68, RRT 0.90 ([1]; 24 hr): 0.04%
- HPLC peak RT 17.69, RRT 1.09 ([1]; 24 hr): 0.09%
- HPLC peak RT 20.47, RRT 1.26 ([1]; 24 hr): 0.05
- HPLC peak RT 20.80, RRT 1.28 ([1]; 24 hr): 0.17%
- HPLC peak RT 21.56, RRT 1.33 ([1]; 24 hr): 0.09%
- HPLC peak RT 21.83, RRT 1.34 ([1]; 24 hr): 0.01%
- HPLC peak RT 22.68, RRT 1.39 ([1]; 24 hr): 0.07%
- HPLC peak RT 22.76, RRT 1.40 ([1]; 24 hr): 0.02%
- Z-form, RT 16.25, RRT 1.00 ([1]; 24 hr): 94.73
- E-form, RT 15.40, RRT 0.95 ([1]; 28 hr): 1.26%
- HPLC peak RT 3.14, RRT 0.19 ([1]; 28 hr): 0.11%
- HPLC peak RT 4.25, RRT 0.26 ([1]; 28 hr): 3.14
- HPLC peak RT 14.68, RRT 0.90 ([1]; 28 hr): 0.04%
- HPLC peak RT 17.69, RRT 1.09 ([1]; 28 hr): 0.1%
- HPLC peak RT 20.47, RRT 1.26 ([1]; 28 hr): 0.06
- HPLC peak RT 20.80, RRT 1.28 ([1]; 28 hr): 0.19%
- HPLC peak RT 21.56, RRT 1.33 ([1]; 28 hr): 0.09%
- HPLC peak RT 21.83, RRT 1.34 ([1]; 28 hr): 0.01%
- HPLC peak RT 22.68, RRT 1.39 ([1]; 28 hr): 0.09%
- HPLC peak RT 22.76, RRT 1.40 ([1]; 28 hr): 0.02%
- Z-form, RT 16.25, RRT 1.00 ([1]; 28 hr): 93.99
- E-form, RT 15.40, RRT 0.95 ([1]; T0): 0.65%
- HPLC peak RT 3.14, RRT 0.19 ([1]; T0): 0.16%
- HPLC peak RT 4.25, RRT 0.26 ([1]; T0): 0.12
- HPLC peak RT 14.68, RRT 0.90 ([1]; T0): 0.04%
- HPLC peak RT 17.69, RRT 1.09 ([1]; T0): 0.08%
- HPLC peak RT 20.47, RRT 1.26 ([1]; T0): 0.03
- HPLC peak RT 20.80, RRT 1.28 ([1]; T0): 0.07%
- HPLC peak RT 21.56, RRT 1.33 ([1]; T0): 0.08%
- HPLC peak RT 21.83, RRT 1.34 ([1]; T0): 0.07%
- HPLC peak RT 22.68, RRT 1.39 ([1]; T0): 0.03%
- HPLC peak RT 22.76, RRT 1.40 ([1]; T0): 0.06%
- Z-form, RT 16.25, RRT 1.00 ([1]; T0): 98.28
- Stability of (Z)-endoxifen produced from methods using acetone recrystallization only ([1]; summary of TABLES 2 and 3): unstable
- Output Crystallinity [high/low/SC/oriented] ([2]; SLHT-1D-H2O/THF(40 mg/ml), FIG. 3: water/tetrahydrofuran 95/5, 40 mg/mL): low
- Output Crystallinity [high/low/SC/oriented] ([2]; SLHT-1D-HEP/TOL(100 mg/ml), FIG. 89: heptane/toluene 50/50, 100 mg/mL): low
- Polymorphic form recovered (XRPD) ([2]; all solvent mixture slurries, 40 or 100 mg/ml, 50° C. (40° C. with acetone), one day): Form I with varying degrees of purity
